Source: PMC9939733 (The Journal of Biological Chemistry, 2023)
“And” between values parts separate entries of the source, which are not always exact repeats. Identical values can stand only once.

Columns and labels:
[1] = target: T1, R132H IDH1 (Homo sapiens, UniProt O75874, R132H); experiment: Electrochemical assay (FNR+R132H IDH1)@ITO/PGE electrode; format: biochemical; design: made in house; host or cells: Escherichia coli BL21(DE3) pLyS (IDH1 R132H)
Method: Assays were carried out in an anaerobic glovebox (Glove Box Technology) under a nitrogen atmosphere. A potentiostat (Autolab PGSTAT 10) running on Nova software was used for all experiments. As previously described, the electrochemical apparatus included an Autolab electrode rotator, a two-chamber custom-made glass electrochemical cell, and custom-made rotating pyrolytic graphite edge (PGE) electrodes ([55]). Platinum wire was used as the counter electrode; it was placed in the working electrode chamber. Electrode potentials (E) were measured against a saturated calomel electrode and converted to the standard hydrogen electrode using a temperature-dependent equation (at 25 °C: ESHE = ESCE + 0.2412 V) ([55]). Nanoporous indium tin oxide (ITO) electrodes were made by electrophoretically depositing ITO nanoparticles (<50 nm, Sigma-Aldrich) onto PGE electrodes (ITO/PGE) as previously described ([55]). […] In all experiments, 0.85 nmol (homodimer basis) of IDH1 R132H was used; the amount of coloaded FNR was adjusted to achieve the desired enzyme loading ratio. Electrodes loaded with enzyme were thoroughly rinsed using buffer solution before each experiment to remove excess enzyme. […]
and controlled electrochemically under steady-state conditions (1).
Conditions: 25 °C, mixed buffer (20 […]
mM each MES, TAPS, CHES, pH 8.0), 10 mM MgCl2, 10 µM NADPH, 4 mL cell volume, (FNR+R132H IDH1)@ITO/PGE electrode, electrode area 0.06 cm2, rotated at 1000 rpm, E = –0.513 V vs SHE, enzyme loading ratios (molar): FNR/R132H IDH1; 2.5 (dimer basis).
(§1) (1 picture or pasted object on this page, not shown here)
Target sequence in this assay (O75874 2-414 R132H): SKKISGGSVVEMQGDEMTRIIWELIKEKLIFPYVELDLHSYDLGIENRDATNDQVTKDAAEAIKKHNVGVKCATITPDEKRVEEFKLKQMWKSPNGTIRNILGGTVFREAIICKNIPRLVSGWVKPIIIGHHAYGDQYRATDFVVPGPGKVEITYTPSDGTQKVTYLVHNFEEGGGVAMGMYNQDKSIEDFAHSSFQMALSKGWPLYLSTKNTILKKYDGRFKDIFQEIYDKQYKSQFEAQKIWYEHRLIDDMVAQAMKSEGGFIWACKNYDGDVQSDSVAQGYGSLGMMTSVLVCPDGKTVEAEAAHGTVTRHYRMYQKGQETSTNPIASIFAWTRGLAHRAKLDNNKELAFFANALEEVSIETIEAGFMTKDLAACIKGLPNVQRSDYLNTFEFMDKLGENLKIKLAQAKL

[2] = target: T1, R132H IDH1; experiment: Steady-state kinetics, absorbance assay; format: biochemical; design: made in house; host or cells: Escherichia coli BL21(DE3) pLyS
Method: Compounds were dispensed using a CyBio SDW-CW CyBi-Well Simultaneous Pipettor and assay started using a ThermoFisher Multidrop Combi reagent dispenser.
Reactions were performed as technical duplicates, and all assays were carried out in two independent duplicates.
Target sequence in this assay (O75874 whole entry R132H): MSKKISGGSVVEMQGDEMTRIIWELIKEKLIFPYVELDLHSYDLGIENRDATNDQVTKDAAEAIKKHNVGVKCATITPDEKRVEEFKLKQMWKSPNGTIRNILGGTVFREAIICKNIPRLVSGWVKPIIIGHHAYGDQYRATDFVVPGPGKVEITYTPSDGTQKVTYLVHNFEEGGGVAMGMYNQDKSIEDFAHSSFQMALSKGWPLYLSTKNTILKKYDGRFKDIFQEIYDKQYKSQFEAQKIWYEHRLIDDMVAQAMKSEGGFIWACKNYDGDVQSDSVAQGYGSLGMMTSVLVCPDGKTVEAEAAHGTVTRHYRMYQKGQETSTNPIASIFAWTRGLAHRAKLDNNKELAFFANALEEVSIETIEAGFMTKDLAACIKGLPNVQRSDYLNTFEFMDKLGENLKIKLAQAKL

[3] = target: T1, R132H IDH1; experiment: CPMG 1H NMR binding study; design: made in house; host or cells: Escherichia coli BL21(DE3) pLyS; conditions: 50 µM ligand, R132H IDH1 titrated, 10 mM CaCl2, pH 7.5
Method: Binding studies were performed at 298K in buffer (50 mM Tris-d11, pH 7.5, 10%v/v D2O, 10 mM CaCl2) using CPMG NMR spectroscopy ([56]) and a water suppression pulse sequence.
similar manner as does 2OG. 1H NMR (CPMG-edited (2), 700 MHz) binding studies of R132H IDH1 with (a)
2OG/2OG derivative. […] Red spectra: 50 µM
Assays were performed as described in the Experimental
Procedures Section by titrating a concentrated R132H IDH1 stock solution (1.4 mM) into a mixture containing
as §1
Target sequence in this assay (O75874 whole entry R132H): as above

[4] = 0.03 μM enzyme, 50 μM NADPH, 20 mM MgCl2, pH 8.0

O=C(O)CCC(=O)C(=O)O [2OG, 2-oxoglutarate, reference compound]
predicted change in catalytic rate [1]: −9% | Kmapp (electrochemical assay) ([1]; 25 °C, pH 8.0, 10 mM MgCl2, 10 µM NADPH, nanoconfined enzyme): ~0.6 mM | decrease of R132H IDH1 faradaic 'coupled' current during each scan ([1]; cyclic voltammetry, stationary electrode, 20 μM NADPH, 10 mM MgCl2, pH 8): −10% | Kmapp [2, 4]: ~ 0.85 mM and 0.85 ± 0.19 mM and 0.85 mM | kcatapp [2, 4]: 0.72 ± 0.04 s⁻¹ and 0.5 to 0.7 s⁻¹ | Vmax ([2]; experimental value used for Michaelis-Menten simulation, Fig. 3H): 1.3 µM/min | signal depletion (CPMG 1H NMR) [3]: ~80%
